From US7601717B2, “Pterin analogs” (BioMarin Pharmaceutical Inc., priority 2008, dated 2009) come the findings set out here.

Series [1] can be described thus: Pharmacokinetics and bioavailability, single intravenous or oral doses, partial Latin square crossover. It is filed as in vivo, male cynomolgus monkeys. The following applies: for bioavailability: male, cynomolgus monkey, plasma, po; for Absolute Bioavailability of the BH4 Analog: dihydrochloride; for Val-BH4/(BH4 + BH2 + B), analog remaining in systemic circulation / Val-BH4/BH4, analog remaining in systemic circulation: determined from AUC0-t; for Val-BH4/total biopterin, analog remaining in systemic circulation: from AUC0-t, total biopterin adjusted to BH4 analog. The protocol:
This study was to determine the pharmacokinetics and relative bioavailability of BH4 when given as parent BH4 or an analog of BH4 to male cynomolgus monkeys as single intravenous or oral doses in a partial Latin square crossover design.
Six, male, non-naïve cynomolgus monkeys were fasted overnight prior to dosing through approximately 4 hours postdose. Individual doses were calculated based on body weights recorded on each day of dose administration. Five experimental groups of monkeys were evaluated using a partial Latin square crossover design: Group 1-2 mg/kg BH4 by IV; Group 2-40 mg/kg BH4 by oral gavage; Group 3-2 mg/kg BH4 analog by IV; Group 4-5 mg/kg BH4 analog by oral gavage; Group 5-20 mg/kg BH4 analog by oral gavage. The doses of BH4 analog were prepared as mg/kg equivalents of BH4 (calculated using BH4 and BH4 analog 2HCl molecular weights). The partial Latin square crossover design was used to minimize dose sequence effect on interanimal variability for statistical purposes. The monkeys received their respective dose of BH4 intravenously (2 mL/kg, dissolved in 100 μM ascorbic acid and 5% mannitol in sterile water for injection, SWFI), Example 5 intravenously (2 mL/kg, dissolved in 100 μM ascorbic acid and 5% mannitol in citrate buffer, pH 3) or BH4 or Example 5 by oral gavage (4 mL/kg, dissolved in 100 μM ascorbic acid in SWFI). Prior to use, all intravenous dose formulations were filtered into the final dosing container using a 0.22-micron syringe filter (Millex GS or GV; Millipore).
For intravenous administration, blood (approximately 1 mL) was collected from each animal predose and at 0.083, 0.25, 0.5, 1, 2, 3, 4, 6, 8, 12, 18, and 24 hours postdose. For oral administration, blood (approximately 1 mL) was collected from each animal predose and at 0.25, 0.5, 1, 2, 3, 4, 6, 8, 12, 18, and 24 hours postdose. Blood was collected into tubes containing K2-EDTA anticoagulant, which was maintained in chilled condition, and centrifuged to obtain plasma. Centrifugation began within 30 minutes of collection. Three, 100-μL aliquots of each plasma sample were promptly transferred following centrifugation into individual tubes containing 0.1% (w/v) dithioerythritol (DTE) for storage. Once the plasma aliquot was added, each tube was vortexed briefly to mix then immediately placed on dry ice.

The nature of series [2]: HPLC with ECD and fluorescence detection of biopterins in plasma of dosed monkeys. The conditions noted are these: plasma 2 hours post-administration, 2% MeOH mobile phase, FIG. 16. It is filed as in vivo, cynomolgus monkeys. The procedure:
An HPLC method using Electrochemical Detection (ECD) and Fluorescence (FL) detection is advantageous as it allows for the measurement of each of the discrete biopterin compounds (BH4, BH2 and B) as well as analog, such as prodrug, forms (e.g., Val-BH4, Val-BH2, and Val-B).
The concentrations of different biopterins (BH4, BH2 and B) and Val-biopterins are determined by initially using reverse phase HPLC for separation, followed by ECD and FL detection. BH4 and Val-BH4 are measured using ECD in which BH4 and Val-BH4 are oxidized by electrode 1 to quinonoid dihydrobiopterin forms (qBH2 or Val-qBH2, respectively), a short-lived dihydrobiopterin intermediate, and then reduced back to BH4 or Val-BH4 at electrode 2. The detector then uses the current generated by this reduction reaction to determine the concentration of BH4 or Val-BH4, respectively. BH2, Val-BH2, B and Val-B are measured by fluorescence detection. […] This is desirable because BH2 is not fluorescently active or easily measured and must be converted to biopterin, which is easily measured using fluorescence. […] In one embodiment, the biopterin analogs, such as valine biopterin derivatives, are measured using a 10% MeOH-containing mobile phase whereas the biopterins are measured using a 2% MeOH-containing mobile phase.
The compound of Example 5 can be detected in buffer and by extraction using this assay. […]

Counter-ions that a name gives are not always drawn. Like-named read-outs stand apart in the source and are kept apart here.

With `CC(C)[C@H](N)C(=O)O[C@@H](C)[C@H](O)[C@H]1CNc2nc(N)[nH]c(=O)c2N1` [Example 5, 2-Amino-3-methyl-butyric acid 2-(2-amino-4-oxo-3,4,5,6,7,8-hexahydro-pteridin-6-yl)-2-hydroxy-1-methyl-ethyl ester dihydrochloride], the bioavailability in series [1] (5 mg/kg, oral 5 mg/kg (BH4 equivalents), n=6, read-out: Absolute Bioavailability of the BH4 Analog) is 36%; in series [1] (20 mg/kg, oral 20 mg/kg (BH4 equivalents), n=6, read-out: Absolute Bioavailability of the BH4 Analog), 33%; in series [1] (20 mg/kg, oral 5 and 20 mg/kg, read-out: absolute bioavailability of Val-BH4 present in plasma), 33 to 36%. The “Absolute Bioavailability of the BH4 Analog” value is recorded as 36.2 (26.3) % in series [1] (oral 5 mg/kg (BH4 equivalents), n=6, 5 mg/kg) and 33.2 (29.2) % in series [1] (oral 20 mg/kg (BH4 equivalents), n=6, 20 mg/kg). In series [1] (oral 5 mg/kg, FIG. 10), the “absorption and distribution of the analog in plasma” value is “absorbed quickly and was rapidly distributed by 4 hr”. In addition, the “Val-BH4/(BH4 + BH2 + B), analog remaining in systemic circulation” value is 36.4 (16.0) % in series [1] (oral 5 mg/kg, n=6) and 51.6 (11.6) % in series [1] (oral 20 mg/kg, n=6). Moreover, the “Val-BH4/BH4, analog remaining in systemic circulation” value in series [1] (oral 5 mg/kg, n=6) was 56.3 (25.2) %; in series [1] (oral 20 mg/kg, n=6) it was 81.0 (18.1) %. Also, the “Val-BH4/total biopterin, analog remaining in systemic circulation” value is 23.5 (5.6) % in series [1] (oral 5 mg/kg, n=6) and 40.7 (11.1) % in series [1] (oral 20 mg/kg, n=6). Besides, the “percent of Val-BH4 remaining in systemic circulation” value in series [1] (oral 5 and 20 mg/kg, based on total biopterin adjusted to Val-BH4) was “greater than 23.5±5.6%”. Moreover, the “height of the BH4 peak compared with monkeys administered BH4” value in series [2] is on record as “several fold higher”.

For orientation: bioavailability means the share of a dose that reaches the circulation, judged against a reference dose that is usually intravenous.
